Experimental data from patent US10689377B2 (Mirati Therapeutics, Inc., priority 2017, dated 2020).
Counter-ions that a name gives are not always drawn.

Target: KRas G12C (Homo sapiens, UniProt P01116, G12C)
Experiment: Cellular inhibition of KRas G12C measured by Phospho-ERK in NCI-H358 cells
Type: cell-based
Settings: pERK(Thr202/Tyr204) normalized with GAPDH, NCI-H358 cells, 3 hours; read-out: IC50
How it was run: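 Readout is pERK(Thr202/Tyr204) immunofluorescence normalized to GAPDH, expressed as percent of DMSO control and fitted with a 4-parameter curve for IC50. Attached NCI-H358 cells received compound for 3 hours in 0.5% DMSO, followed by fixation and methanol permeabilization.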

KRas G12C, sequence (P01116 1-188 isoform P01116-2 G12C): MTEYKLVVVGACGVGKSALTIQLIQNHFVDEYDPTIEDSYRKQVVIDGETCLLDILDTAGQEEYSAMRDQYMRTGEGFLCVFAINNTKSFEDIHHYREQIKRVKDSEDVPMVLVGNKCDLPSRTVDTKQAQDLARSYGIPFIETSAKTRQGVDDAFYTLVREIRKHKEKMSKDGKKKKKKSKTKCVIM

Structure (SMILES) | IC50 [nM]
C=CC(=O)N1CCN(c2nc(OCCCN3CCS(=O)(=O)CC3)nc3c2CCN(c2cc(O)cc4ccccc24)C3)CC1 [Example 34, 1-(4-(2-(3-(1,1-dioxidothiomorpholino)propoxy)-7-(3-hydroxynaphthalen-1-yl)-5,6,7,8-tetrahydropyrido[3,4-d]pyrimidin-4-yl)piperazin-1-yl)prop-2-en-1-one trifluoroacetate] | > 1000
C=CC(=O)N1CCN(c2nc(OCCCN3CCOCC3)nc3c2CCN(c2cc(O)ccc2SC(F)(F)F)C3)CC1 [Example 214, 1-(4-(7-(5-hydroxy-2-((trifluoromethyl)thio)phenyl)-2-(3-morpholinopropoxy)-5,6,7,8-tetrahydropyrido[3,4-d]pyrimidin-4-yl)piperazin-1-yl)prop-2-en-1-one] | > 1000
C=CC(=O)N1CCN(c2nc(OC[C@@H]3CCCN3C)nc3c2CCN(c2cccc4ccc(Cl)cc24)C3)CC1CC#N (stereo partly drawn) [Example 286, 2-(1-acryloyl-4-(7-(7-chloronaphthalen-1-yl)-2-(((S)-1-methylpyrrolidin-2-yl)methoxy)-5,6,7,8-tetrahydropyrido[3,4-d]pyrimidin-4-yl)piperazin-2-yl)acetonitrile] | 0.1 to 1000
C=CC(=O)N1CCN(c2nc(OC[C@@H]3COCCN3C)nc3c2CCN(c2cccc4ccccc24)C3)CC1CC#N (stereo partly drawn) [Example 272, 2-(1-acryloyl-4-(2-(((S)-4-methylmorpholin-3-yl)methoxy)-7-(naphthalen-1-yl)-5,6,7,8-tetrahydropyrido[3,4-d]pyrimidin-4-yl)piperazin-2-yl)acetonitrile] | 0.1 to 1000
C=CC(=O)N1CCN(c2nc(OC[C@@H]3CCCN3C)nc3c2CCN(c2ccncc2C(F)(F)F)C3)CC1CC#N (stereo partly drawn) [Example 239, 2-(1-acryloyl-4-(2-(((S)-1-methylpyrrolidin-2-yl)methoxy)-7-(3-(trifluoromethyl)pyridin-4-yl)-5,6,7,8-tetrahydropyrido[3,4-d]pyrimidin-4-yl)piperazin-2-yl)acetonitrile] | > 1000
C=CC(=O)N1CCN(c2nc(OC[C@@H]3CCCN3C)nc3c2CCN(c2cc(O)cc4ccccc24)C3)[C@@H](C)C1 [Example 202, 1-((S)-4-(7-(3-hydroxynaphthalen-1-yl)-2-(((S)-1-methylpyrrolidin-2-yl)methoxy)-5,6,7,8-tetrahydropyrido[3,4-d]pyrimidin-4-yl)-3-methylpiperazin-1-yl)prop-2-en-1-one] | 0.1 to 1000
C=CC(=O)N1CCN(c2nc(OCCN(C)C)nc3c2CCN(c2cc(O)cc4ccccc24)C3)CC1CC#N (centres unmarked) [Example 170, 2-(1-acryloyl-4-(2-(2-(dimethylamino)ethoxy)-7-(3-hydroxynaphthalen-1-yl)-5,6,7,8-tetrahydropyrido[3,4-d]pyrimidin-4-yl)piperazin-2-yl)acetonitrile] | 0.1 to 1000
C=CC(=O)N1CCN(c2nc(OC[C@@H]3C[C@@H](OC)CN3CC)nc3c2CCN(c2cccc(Cl)c2C(F)(F)F)C3)C[C@@H]1CC#N [Example 335, 2-[(2S)-4-[7-[3-chloro-2-(trifluoromethyl)phenyl]-2-[[(2S,4R)-1-ethyl-4-methoxy-pyrrolidin-2-yl]methoxy]-6,8-dihydro-5H-pyrido[3,4-d]pyrimidin-4-yl]-1-prop-2-enoyl-piperazin-2-yl]acetonitrile] | 0.1 to 1000
C=CC(=O)N1CCN(c2nc(OC[C@@H]3CCCN3C)nc3c2CCN(c2c(F)cccc2C(F)(F)F)C3)CC1CC#N (some centres unmarked) [Example 275] | 0.1 to 1000
C=CC(=O)N1CCN(c2nc(OC[C@@H]3CCCN3C)nc3c2CCN(c2c(C)ccc(F)c2C)C3)C[C@@H]1CC#N [Example 349, 2-((S)-1-acryloyl-4-(7-(3-fluoro-2,6-dimethylphenyl)-2-(((S)-1-methylpyrrolidin-2-yl)methoxy)-5,6,7,8-tetrahydropyrido[3,4-d]pyrimidin-4-yl)piperazin-2-yl)acetonitrile] | 0.1 to 1000
C=CC(=O)N1CCN(c2nc(OCC3CCN(CCO)C3)nc3c2CCN(c2cc(O)cc4ccccc24)C3)CC1 (centres unmarked) [Example 141, 1-[4-[2-[[1-(2-hydroxyethyl)pyrrolidin-3-yl]methoxy]-7-(3-hydroxy-1-naphthyl)-6,8-dihydro-5H-pyrido[3,4-d]pyrimidin-4-yl]piperazin-1-yl]prop-2-en-1-one] | > 1000
C=CC(=O)N1CCN(c2nc(OCCN3CCCCC3)nc3c2CCN(c2c(C)ccc4[nH]ncc24)C3)CC1 [Example 164] | > 1000
C=CC(=O)N1CCN(c2nc(O[C@H](C)CN(C)C)nc3c2CCN(c2cc(O)cc(OC(F)(F)F)c2)C3)CC1 [Example 91, (R)-1-(4-(2-((1-(dimethylamino)propan-2-yl)oxy)-7-(3-hydroxy-5-(trifluoromethoxy)phenyl)-5,6,7,8-tetrahydropyrido[3,4-d]pyrimidin-4-yl)piperazin-1-yl)prop-2-en-1-one] | > 1000
C=CC(=O)N1CCN(c2nc(O[C@H](C)CN(C)C)nc3c2CCN(c2cc(O)cc4ccccc24)C3)CC1 [Example 19, (R)-1-(4-(2-((1-(dimethylamino)propan-2-yl)oxy)-7-(3-hydroxynaphthalen-1-yl)-5,6,7,8-tetrahydropyrido[3,4-d]pyrimidin-4-yl)piperazin-1-yl)prop-2-en-1-one] | 0.1 to 1000
C=CC(=O)N1CCN(c2nc(OCCN3CCC(OC)CC3)nc3c2CCN(c2cc(O)cc4ccccc24)C3)CC1 [Example 108, 1-(4-(7-(3-hydroxynaphthalen-1-yl)-2-(2-(4-methoxypiperidin-1-yl)ethoxy)-5,6,7,8-tetrahydropyrido[3,4-d]pyrimidin-4-yl)piperazin-1-yl)prop-2-en-1-one] | 0.1 to 1000
C=CC(=O)N1CCN(c2nc(OCCc3ccccn3)nc3c2CCN(c2cc(O)cc4ccccc24)C3)CC1 [Example 126, 1-(4-(7-(3-hydroxynaphthalen-1-yl)-2-(2-(pyridin-2-yl)ethoxy)-5,6,7,8-tetrahydropyrido[3,4-d]pyrimidin-4-yl)piperazin-1-yl)prop-2-en-1-one trifluoroacetate] | > 1000
C=CC(=O)N1CCN(c2nc(OC(C)CCN(C)C)nc3c2CCN(c2cc(O)cc4ccccc24)C3)CC1 (centres unmarked) [Example 21, 1-(4-(2-((4-(dimethylamino)butan-2-yl)oxy)-7-(3-hydroxynaphthalen-1-yl)-5,6,7,8-tetrahydropyrido[3,4-d]pyrimidin-4-yl)piperazin-1-yl)prop-2-en-1-one] | 0.1 to 1000

More lines, now with the values ahead:

IC50 [nM] | Structure (SMILES)
0.1 to 1000 | C=CC(=O)N1CCN(c2nc(OC[C@@H]3CCCN3C)nc3c2CCN(c2cccc4cccc(C)c24)C3)C[C@H]1CC#N [Example 461, 2-[(2R)-4-[7-(8-methyl-1-naphthyl)-2-[[(2S)-1-methylpyrrolidin-2-yl]methoxy]-6,8-dihydro-5H-pyrido[3,4-d]pyrimidin-4-yl]-1-prop-2-enoyl-piperazin-2-yl]acetonitrile]
0.1 to 1000 | C=CC(=O)N1CCN(c2nc(OC[C@@H]3CCCN3C)nc3c2CCN(c2ccc(F)c(C)c2C)C3)C[C@@H]1CC#N [Example 424, 2-((S)-1-acryloyl-4-(7-(4-fluoro-2,3-dimethylphenyl)-2-(((S)-1-methylpyrrolidin-2-yl)methoxy)-5,6,7,8-tetrahydropyrido[3,4-d]pyrimidin-4-yl)piperazin-2-yl)acetonitrile]
0.1 to 1000 | C=CC(=O)N1CCN(c2nc(OC[C@@H]3[C@@H](O)CCN3C)nc3c2CCN(c2cccc4ccccc24)C3)C[C@@H]1CC#N [Example 390, 2-((S)-1-acryloyl-4-(2-(((2R,3S)-3-hydroxy-1-methylpyrrolidin-2-yl)methoxy)-7-(naphthalen-1-yl)-5,6,7,8-tetrahydropyrido[3,4-d]pyrimidin-4-yl)piperazin-2-yl)acetonitrile]
0.1 to 1000 | C=CC(=O)N1CCN(c2nc(OC[C@@H]3CCCN3C)nc3c2CCN(c2cccc(Cl)c2C)C3)C[C@@H]1CC#N [Example 420, 2-((S)-1-acryloyl-4-(7-(3-chloro-2-methylphenyl)-2-(((S)-1-methylpyrrolidin-2-yl)methoxy)-5,6,7,8-tetrahydropyrido[3,4-d]pyrimidin-4-yl)piperazin-2-yl)acetonitrile]
0.1 to 1000 | C=CC(=O)N1CCN(c2nc(OC[C@@H]3CCCN3C)nc3c2CCN(c2cccc(C)c2Cl)C3)C[C@@H]1CC#N [Example 425, 2-((S)-1-acryloyl-4-(7-(2-chloro-3-methylphenyl)-2-(((S)-1-methylpyrrolidin-2-yl)methoxy)-5,6,7,8-tetrahydropyrido[3,4-d]pyrimidin-4-yl)piperazin-2-yl)acetonitrile]
0.1 to 1000 | COC/C=C/C(=O)N1CCN(c2nc(OC[C@@H]3CCCN3C)nc3c2CCN(c2cccc(C)c2C)C3)C[C@@H]1CC#N [Example 489, 2-((S)-4-(7-(2,3-dimethylphenyl)-2-(((S)-1-methylpyrrolidin-2-yl)methoxy)-5,6,7,8-tetrahydropyrido[3,4-d]pyrimidin-4-yl)-1-((E)-4-methoxybut-2-enoyl)piperazin-2-yl)acetonitrile]
0.1 to 1000 | C=CC(=O)N1CCN(c2nc(OC[C@H]3CCCCN3C)nc3c2CCN(c2cccc4ccccc24)C3)C[C@@H]1CC#N [Example 432, 2-((S)-1-acryloyl-4-(2-(((R)-1-methylpiperidin-2-yl)methoxy)-7-(naphthalen-1-yl)-5,6,7,8-tetrahydropyrido[3,4-d]pyrimidin-4-yl)piperazin-2-yl)acetonitrile]
0.1 to 1000 | C=C(F)C(=O)N1CCN(c2nc(OC[C@@H]3CCCN3C)nc3c2CCN(c2cccc(C)c2C)C3)C[C@@H]1CC#N [Example 472, 2-[(2S)-4-[7-(2,3-dimethylphenyl)-2-[[(2S)-1-methylpyrrolidin-2-yl]methoxy]-6,8-dihydro-5H-pyrido[3,4-d]pyrimidin-4-yl]-1-(2-fluoroprop-2-enoyl)piperazin-2-yl]acetonitrile]
0.1 to 1000 | Cc1cccc2cccc(N3CCc4c(nc(OC[C@@H]5CCCN5C)nc4N4CCN(C(=O)/C=C/C(=O)N(C)C)[C@@H](CC#N)C4)C3)c12 [Example 499, (E)-4-((S)-2-(cyanomethyl)-4-(7-(8-methylnaphthalen-1-yl)-2-(((S)-1-methylpyrrolidin-2-yl)methoxy)-5,6,7,8-tetrahydropyrido[3,4-d]pyrimidin-4-yl)piperazin-1-yl)-N,N-dimethyl-4-oxobut-2-enamide]
